Measurements published in the OPERA property sets (Mansouri et al. 2018).
Values after ≈ are worked out from the molar mass of the structure shown.

SMILES	solubility [mM]	solubility (25 °C) [mM]	other results
COc1cc([C@@H]2c3cc4c(c(O)c3C[C@H]3COC(=O)[C@@H]32)OCO4)cc(OC)c1OC	–	–	solubility (23 °C): 0.0314 mM (≈ 13 µg/mL)
CN(Cc1cc(Br)cc(Br)c1N)C1CCCCC1	10.6 (≈ 4000 µg/mL)	–	–
Cn1c([N+](=O)[O-])cnc1COC(N)=O	–	14.3 (≈ 2870 µg/mL)	–
CCCCN(CCN(CCCC)C(=O)N1CCOCC1)C(=O)N1CCOCC1	1250 (≈ 500000 µg/mL)	–	–
CCCOc1ccc([N+](=O)[O-])cc1N	–	–	solubility (20 °C): 0.693 mM (≈ 136 µg/mL)
O=C1C(Br)=CC(=NCl)C=C1Br	–	0.196 (≈ 58.8 µg/mL)	–
O=C(O)[C@H](O)[C@@H](O)[C@H](O)[C@H](O)CO	–	1610 (≈ 316000 µg/mL)	–
O=CNc1ccccc1	–	210 (≈ 25400 µg/mL)	–
NC(Cc1n[nH]c2ccccc12)C(=O)O (stereo unspecified)	–	–	solubility (29 °C): 39 mM (≈ 8000 µg/mL)
O=C(OC(=O)c1ccccc1)c1ccccc1	–	0.0442 (≈ 10 µg/mL)	–
O=[N+]([O-])c1ccc(C=NO)o1	–	6.41 (≈ 1000 µg/mL)	–
Nc1ccc(S(=O)(=O)O)c2cc(S(=O)(=O)O)ccc12	551 (≈ 167000 µg/mL)	–	–
CCN(CC)C(=O)CSc1ccc(Cl)nn1	19.2 (≈ 5000 µg/mL)	–	–
CO[C@H]1[C@H](O)[C@H](O[C@H]2CC[C@@]3(C=O)[C@H](CC[C@@H]4[C@@H]3CC[C@]3(C)[C@@H](C5=CC(=O)OC5)CC[C@]43O)C2)O[C@@H](C)[C@@H]1O	–	0.729 (≈ 400 µg/mL)	–
C[C@](N)(Cc1ccc(O)c(O)c1)C(=O)O	–	47.3 (≈ 10000 µg/mL)	–
NS(=O)(=O)c1cc2c(cc1C(F)(F)F)NC=NS2(=O)=O	–	152 (≈ 50000 µg/mL)	–
Cc1csc(NS(=O)(=O)c2ccc(N)cc2)n1	7.43 (≈ 2000 µg/mL)	–	–
CC1(C)[C@H]2CC[C@]1(C)C(=O)[C@H]2O	119 (≈ 20000 µg/mL)	–	–
CNC(=S)NCO	832 (≈ 100000 µg/mL)	–	–
CN1C2CCCC1CC(=O)C2	2610 (≈ 400000 µg/mL)	–	–
CC(=O)N(O)CCCCCNC(=O)CCC(=O)N(O)CCCCCNC(=O)CCC(=O)N(O)CCCCCN	–	–	solubility (20 °C): 21.4 mM (≈ 12000 µg/mL)

SMILES	solubility [mM]	solubility (25 °C) [mM]	other results
C=C(C)C(=O)C(=CC(=O)O)OC	–	118 (≈ 20000 µg/mL)	–
CN(C)CCc1ccc(O)cc1	42.4 (≈ 7000 µg/mL)	–	–
O=C(OCCOCCO)c1ccccc1Nc1cccc(C(F)(F)F)c1	–	–	solubility (22 °C): 0.00433 mM (≈ 1.6 µg/mL)
CCSc1nnc(C(C)(C)C)c(=O)n1N	–	–	solubility (20 °C): 1.84 mM (≈ 420 µg/mL)
O=c1[nH]c(=O)n([C@H]2C[C@H](O)[C@@H](CO)O2)cc1I	–	5.65 (≈ 2000 µg/mL)	–
Cc1cnc(NS(=O)(=O)c2ccc(N)cc2)nc1	–	–	solubility (pH 5.5): 1.51 mM (≈ 400 µg/mL)
CC(=O)C1CCOC1=O (stereo unspecified)	1560 (≈ 200000 µg/mL)	–	–
CN(CCO)c1nc2c(c(=O)n(C)c(=O)n2C)n1C	224 (≈ 60000 µg/mL)	–	–
CNC[C@H](O)[C@@H](O)[C@H](O)[C@H](O)CO	–	3620 (≈ 707000 µg/mL)	–
OCc1cc(Br)ccc1O	–	621 (≈ 126000 µg/mL)	–
CC(=O)Oc1ccc(Br)cc1C(=O)O	2.57 (≈ 667 µg/mL)	–	–
Nc1nc(N)c(O[C@@H]2O[C@H](CO)[C@@H](O)[C@H](O)[C@H]2O)c(=O)[nH]1	32.9 (≈ 10000 µg/mL)	–	–
C=C1CCO[C@]2([C@H](O)[C@@](C)(O)CO)NC(=O)[C@@]1(O)NC2=O	635 (≈ 192000 µg/mL)	–	–
Cn1ccc(=O)c2ccccc21	104 (≈ 16600 µg/mL)	–	–
Nc1nc(N)c(O)c(O)n1	20.1 (≈ 2850 µg/mL)	–	–
COCCOc1c(OC)cc(Cc2cnc(N)nc2N)cc1OC	–	–	solubility (30 °C): 7.93 mM (≈ 2650 µg/mL)
CC[C@@]12CCCN3CC[C@]4(c5cccc(OC)c5N(C(C)=O)[C@@H]4CC1)[C@H]32	47.1 (≈ 16700 µg/mL)	–	–
Nc1ccc(S(=O)(=O)NC(=O)c2ccccc2)cc1	–	–	solubility (30 °C): 1.12 mM (≈ 310 µg/mL)
Nc1ccc(S(=O)(=O)c2cnc(N)s2)cc1	–	–	solubility (28 °C): 1.57 mM (≈ 400 µg/mL)
NC(=O)OCC(Cl)(Cl)Cl	52 (≈ 10000 µg/mL)	–	–
CCC(O)(COC(N)=O)c1ccccc1 (stereo unspecified)	–	119 (≈ 25000 µg/mL)	–

SMILES	solubility [mM]	solubility (25 °C) [mM]	other results
Cn1c(=O)c2c(ncn2CC(O)CO)n(C)c1=O (stereo unspecified)	–	1310 (≈ 333000 µg/mL)	–
S=P(N1CC1)(N1CC1)N1CC1	–	1000 (≈ 190000 µg/mL)	–
CC(=O)N(C)N(C(=O)C(=O)N(C)C)c1ccccc1	–	–	solubility (20 °C): 292 mM (≈ 76900 µg/mL)
O=C(O)/C=C\C(=O)Nc1ccccc1	–	–	solubility (27 °C): 5.23 mM (≈ 1000 µg/mL)
CCC(C)C(C)(COC(N)=O)COC(N)=O (stereo unspecified)	4.31 (≈ 1000 µg/mL)	–	–
CCC(Br)(CC)C(=O)NC(N)=O	1.4 (≈ 333 µg/mL)	–	–
C=C(C)Cn1c(N)cc(=O)n(C)c1=O	–	102 (≈ 20000 µg/mL)	–
C=CCC(C(=O)NC(N)=O)C(C)C (stereo unspecified)	1.79 (≈ 330 µg/mL)	–	–
O=C(c1ccc(F)cc1)C1CCN(CCn2c(=O)[nH]c3ccccc3c2=O)CC1	–	0.0253 (≈ 10 µg/mL)	–
COc1ccc(C(CN(C)C)C2(O)CCCCC2)cc1.Cl (stereo unspecified)	–	–	logP: 0.43
O=S(=O)([O-])CS(=O)(=O)[O-].[Ca+2]	1340	–	–
O=P([O-])([O-])O[C@@H]1[C@@H](O)[C@H](O)[C@@H](O)[C@H](O)[C@@H]1O	1280	–	–
Cc1cc(O)c(Cl)c(C)c1Cl	1.05 (≈ 200 µg/mL)	–	–
C[C@@H]1C(=O)OC[C@H]2[C@@H]1CC[C@@H]2C	–	11.9 (≈ 2000 µg/mL)	–
O=C1NCCN1/N=C/c1ccc([N+](=O)[O-])o1	0.439 (≈ 98.5 µg/mL)	–	–
CC(N)c1ccccc1 (stereo unspecified)	–	–	solubility (20 °C): 347 mM (≈ 42000 µg/mL)
Oc1c(Cl)cc(Cl)cc1Sc1cc(Cl)cc(Cl)c1O	–	0.0112 (≈ 4 µg/mL)	–
Cc1cc(NS(=O)(=O)c2ccc(N)cc2)sn1	83.9 (≈ 22600 µg/mL)	–	–
Cc1cc(O)c(C(C)C)cc1Cl	–	5.42 (≈ 1000 µg/mL)	–
